The structures appear in SMILES notation. “Also recorded” adds a separate entry of the source.

Data set [1] has as its system PKC-δ siRNA nucleofected HUVEC. In words: LTB4 induced neutrophil migration across PKC-δ siRNA nucleofected HUVEC. As to conditions: 100 nM, 1 hour. The data set is classed as cell-based, human. The protocol:
(§1) HUVECs were pretreated with Go-6983 (1, 10, 100 nM), or Go-6976 (1, 10, 100 nM) for 30 minutes, then spiked with 100 nM Bryostatin-1 for 1 hour. HUVECs previously nucleofected with PKC-δ, -ε, or control siRNA were just treated in Bryostatin-1 for 1 hour. HUVECs were washed three times and placed in a new plate containing either 500 μL 100 nM LTB4, or HBSS alone for control. Neutrophils were allowed to migrate for 3 h at 37° C. Migration was stopped by removing the inserts and migration was measured using the MPO assay.
(§2) Neutrophil migration was measured using myeloperoxidase (MPO) analysis. Cell culture inserts were first removed and plates were spun at 1,500 RPM for 5 min. The supernatant was removed, and MPO activity was measured using TMB/peroxide as chromogen. The reaction was stopped with sulfuric acid and absorbance was read at 450 nm using a microplate reader. All experiments were performed n=6. Data was expressed as “% neutrophil migration”, which allowed cumulative statistical analysis to be done and account for unpreventable batch-to-batch variations.
(§3) Optimum nucleofection parameters were determined using nucleofection of a control vector pmaxGFP. Using fluorescence microscopy and flow cytometry, 2 μg vector/500,000 cells nucleofected yielded the highest nucleofection (data not shown). HUVECs were grown to 70% confluency, trypsinized, and then counted. […]

A further data set concerns T84 intestinal epithelia. As to conditions: cited from earlier work.
The subject of data set [2] is PKC-ε siRNA nucleofected HUVEC. In words: LTB4 induced neutrophil migration across PKC-ε siRNA nucleofected HUVEC. The class given is cell-based, human. As to conditions: 1 hour pretreatment. The protocol:
as §1, §2, §3

Data set [3] relates to HMECs. In words: Time course of protection against LTB4 induced PMN TEM after 1 h pretreatment, HMECs. The data set is classed as cell-based, human. As to conditions: for time after pretreatment for which reduction in LTB4 induced migration is maintained: single 1 h 100 nM pretreatment. As for the experimental part: FIG. 6 graphically depicts protection against LTB4 induced PMN TEM with PMA up to 48 h after pretreatment. HMECs were pretreated for 1 h with PMA and washed with HBSS three times to remove PMA prior to replacement of culture medium. Neutrophil migration studies were then performed at 0, 24, or 48 hours. Migration was stimulated by adding 500,000 neutrophils to the top well and 100 nM LTB4 to the lower well at 0, 24, and 48 hours after PMA pretreatment. […] PMA (100 nM, (10^−7M) reduced LTB4 induced migration up to 48 hours after 1 h of endothelial-specific pretreatment (***p<0.001).
Referring now to FIG. 7, FIG. 7 graphically depicts protection from LTB4 induced PMN TEM with Bryostatin-1 up to 48 hours after pretreatment. HMECs were pretreated for 1 h with Bryostatin-1 and washed with HBSS three times to remove Bryostatin-1 prior to replacement of culture medium. Neutrophil migration studies were then performed at 0, 24, or 48 hours. Migration was stimulated by adding 500,000 neutrophils to the top well and 100 nM LTB4 to the lower well at 0, 24, and 48 hours after Bryostatin-1 pretreatment. […] Bryostatin-1 (100 nM) reduced LTB4 induced migration up to 48 hours after 1 hour endothelial pretreatment (***p<0.001).
(§4) At confluency, HUVECs were treated for 1 h at 37° C. with Bryostatin-1 (10 nM, 100 nM) in EGM or EGM alone. Inserts were washed three times with HBSS (to reduce drug effects on the neutrophils) and migration assays were ran at t=0, 24, or 48 h. After time elapsed, HUVECs were placed in a new plate containing either 500 μL 100 nM LTB4 or HBSS alone for control. 500 μL HBSS was then added to the top well and spiked with 500,000 neutrophils. Neutrophils were allowed to migrate for 3 h at 37° C. Migration was stopped by removing the inserts and migration was measured using the MPO assay.
as §2

Data set [4] concerns HUVECs. As to the kind of experiment: Time course of protection against LTB4 induced PMN TEM after 1 h pretreatment, HUVECs. The data set is classed as cell-based, human. Conditions: single 1 h 100 nM pretreatment. As for the experimental part:
as §4, §2

Data set [5] deals with HMECs. As to the kind of experiment: LTB4 induced neutrophil migration across HMEC monolayers (transwell, MPO assay). Conditions: 100 nM LTB4. The data set is classed as cell-based, human. As for the experimental part: (§5) At confluency HMECs were treated for 1 h at 37° C. with Bryostatin-1 (10 nM, 100 nM) in MCDB-131 media or MCDB-131 media alone. Inserts were washed three times with Hank's Balanced Salt Solution (HBSS) (to eliminate drug effects on the neutrophils) and placed in a new plate containing either 500 μL 100 nM LTB4, or HBSS alone for control. 500 μL HBSS was then added to the top well and spiked with 500,000 neutrophils. For TNF-α experiments, HMECs were left in 20 ng/ml TNF-α in MCDB-131 for 24 h TNF-α was removed and HMECs washed three times. HMECs were treated for 1 h with Bryostatin-1 in endothelial growth medium (EGM) (10 nM, 100 nM). The drug was removed and cells were washed three times. 500 μL HBSS was added to both upper and lower chambers and spiked with 500,000 neutrophils. Neutrophils were allowed to migrate for 3 h at 37° C. Migration was stopped by removing the inserts and migration was measured using the myeloperoxidase (MPO) assay.
as §2
(§6) Confluent HMEC monolayers were plated on 48-well plates for adhesion studies, transwells for migration studies, and pretreated with a variety of pharmacological inhibitors and activators for 1 hour. Monolayers were washed three times with HBSS to remove all drug effects on the endothelium. To initiate migration, 100 nM LTB4 was added to the lower compartment and 500,000 neutrophils were added to the upper compartment and allowed to migrate for 3 h. For adhesion assays, LTB4 was added along with 500,000 neutrophils and allowed to adhere for 1 h (time of max. adhesion as determined in FIG. 1). […] The data are shown as % change in migration and adhesion as assessed by MPO assay. All values are expressed as means±SE. Data were analyzed using a one-way ANOVA with Bonferroni corrections for multiple comparisons. Probability (p) values of <0.05 were considered significant. ***p<0.001 vs. LTB4; **p<0.01 vs. LTB4; **p<0.05 vs. LTB4; n=4 for all experiments.

A further data set deals with HMEC. As to the kind of experiment: Alamar blue endothelial viability assay, HMEC. The data set is classed as cell-based, human. Conditions: single 1 h 100 nM treatment; time points 1, 24, 48 h. The protocol:
(§7) The Alamar blue assay was used to determine endothelial viability after pharmacological intervention. Alamar blue contains a REDOX indicator that results in a color change upon chemical reduction by cellular metabolic activity. Endothelial cells were treated with Bryostatin-1 (100 nM) for 1 h and washed three times with HBSS. Alamar blue (10%) in media was added for 2.5 h at T=0, 24, or 48 hours after drug treatment and the ratio of absorbances (570-600 nm) was measured to determine metabolic activity.
(In general: The colour change of resazurin is a common sign of viable cells or microbes.)

For a further data set, the system named is HUVEC. As to the kind of experiment: Alamar blue endothelial viability assay, HUVEC. The data set is classed as cell-based, human. As to conditions: single 1 h 100 nM treatment; time points 1, 24, 48 h (PMA: except 48 h). As for the experimental part: as §7
For data set [6], the system named is HMECs. The class given is cell-based, human. As for the experimental part:
as §5, §2

The subject of a further data set is HMEC monolayers. As to the kind of experiment: LTB4 induced neutrophil adhesion to the endothelial monolayer. Conditions: data not shown. The data set is classed as cell-based, human. As for the experimental part: as §6
The conditions of data set [7]: cited from earlier work.
Data set [8] concerns HUVECs. As to the kind of experiment: Neutrophil TEM restoration studies with PKC inhibitors. The class given is cell-based, human. Conditions: HUVEC; for restoration of PMN TEM in response to LTB4 by PKC inhibitors (reversal of Bryostatin-1 protection): inhibitor pretreatment (Go-6983, Go-6976: 1, 10, 100 nM), then 100 nM Bryostatin-1. As for the experimental part:
as §1, §2

Turning to `CCC/C=C/C=C/C(=O)O[C@H]1/C(=C/C(=O)OC)C[C@H]2C[C@H]([C@@H](C)O)OC(=O)C[C@H](O)C[C@@H]3C[C@H](OC(C)=O)C(C)(C)[C@](O)(C[C@@H]4C/C(=C/C(=O)OC)C[C@H](/C=C/C(C)(C)[C@]1(O)O2)O4)O3` [Bryostatin-1], in data set [1], the “LTB4 induced neutrophil migration after pretreatment, PKC-δ knocked down” value is recorded as “restored the normal level of neutrophil trans endothelial migration”. For the same compound, the barrier function entry with T84 intestinal epithelia is listed as “enhances barrier function”. For the same compound, the “barrier loss induced by TNF-α” value in the data set on T84 intestinal epithelia is reported as “inhibits barrier loss”. In data set [2], the “LTB4 induced neutrophil migration after pretreatment, PKC-ε knocked down” value is on record as “did not restore LTB4 induced migration; also recorded: still suppresses migration”. Besides, the “time after pretreatment up to which LTB4 induced migration is reduced” value in the data set on HMECs [3] (100 nM, 1 h pretreatment, washed, tested at 0, 24, 48 hours) was “up to 48 hours”. Further, the “time after pretreatment for which reduction in LTB4 induced migration is maintained” value in the data set on HMECs [3] is listed as “at least 48 h”; in the data set on HMECs [3] (listed as Bryostatin) it was 48 h; in the data set with HUVECs [4], 48 h. The “LTB4 induced neutrophil migration” value is “reduced LTB4 induced migration in a dose dependent manner” with HMECs [5] (HMECs on transwells, 1 h pretreatment 100 nM or 10 nM (PMA: 100, 10 or 1 nM), 3 h) and “reversed; also recorded: significantly suppressed LTB4 induced migration” with HUVECs [8] (100 nM Bryostatin-1, 1 hour, 100 nM LTB4, 3 h). Also, the “LTB4 induced neutrophil migration (PMN TEM)” value in the data set with HMECs [5] (HMECs, 1 h pretreatment at 1 nM) is “did not reduce PMN TEM”. For the same compound, the “LTB4 induced neutrophil TEM” value with HMECs [5] (HMECs, 1 h pretreatment, higher doses (100 nM)) is reported as “attenuated neutrophil TEM to levels below that of basal migration”. The HMEC viability entry with HMEC is “no effect”. In the data set on HUVEC, the HUVEC viability entry is recorded as “no effect”. Further, in the data set with HMECs [6] (24 h TNF-α pretreatment and 100 nM LTB4 gradient, data not shown), the “migration induced by a combination of TNF-α pretreatment and LTB4 gradient” value is given as “reduced migration”. Further, the “TNF-α induced neutrophil TEM (Type II migration)” value in the data set on HMECs [6] (HMECs, 24 h TNF-α 10 or 20 ng/ml, 1 hour pretreatment with 100 nM) was “attenuated Type II migration; also recorded: totally attenuated”. In the data set with HMEC monolayers, the “LTB4 induced adhesion to the endothelial monolayer” value was “Neither PMA, nor Bryostatin-1 reduced LTB4 induced adhesion”. For the same compound, in data set [7] (Phase II cancer trials), the “cardiovascular disturbances or edema” value is given as “no cardiovascular disturbances or evidence of edema have been observed”. In addition, the “major side effects associated with use” value in [7] (Phase II cancer trials) was “myalgias, nausea, and vomiting”. For the same compound, the adverse effects result in data set [7] (healthy subjects and cancer patients, dosing ranges higher than for 100 ng/ml plasma level) is “no adverse effects”.
On to `CN(C)CCCn1cc(C2=C(c3c[nH]c4ccccc34)C(=O)NC2=O)c2ccccc21` [GF10923X], for which, in the data set with HUVECs [8], the “restoration of PMN TEM in response to LTB4 by PKC inhibitors (reversal of Bryostatin-1 protection)” value was “did not restore PMN TEM”.
`COc1ccc2c(c1)c(C1=C(c3c[nH]c4ccccc34)C(=O)NC1=O)cn2CCCN(C)C` [Go-6983]: the “Bryostatin-1 mediated reduction in migration towards LTB4, effect of PKC inhibitor pretreatment” value with HUVECs [8] (inhibitor 10 or 100 nM, 30 minutes before 100 nM Bryostatin-1) is recorded as “prevented”. Also, the results for the “restoration of PMN TEM in response to LTB4 by PKC inhibitors (reversal of Bryostatin-1 protection)” value in the data set with HUVECs [8] and in the data set on HUVECs [8] (listed as G0-6983) were “dose dependently restored neutrophil migration” and “dose dependently reversed”, respectively.
Consider `CC(=O)c1c(O)c(C)c(O)c(Cc2c(O)c3c(c(C(=O)/C=C/c4ccccc4)c2O)OC(C)(C)C=C3)c1O` [Rottlerin], for which, in the data set with HUVECs [8], the “restoration of PMN TEM in response to LTB4 by PKC inhibitors (reversal of Bryostatin-1 protection)” value is on record as “did not restore PMN TEM”.
For the compound `Cn1c2ccccc2c2c3c(c4c5ccccc5n(CCC#N)c4c21)CNC3=O` [GO-6976], in the data set with HUVECs [8], the “restoration of PMN TEM in response to LTB4 by PKC inhibitors (reversal of Bryostatin-1 protection)” value is “did not restore PMN TEM”.

The record behind these values is patent US10723744B2, “Transplantation therapies” (Aphios Corporation, priority 2007, dated 2020).
